Experimental data from US20130217664A1, “NOVEL COMPOUNDS USEFUL FOR THE TREATMENT OF DEGENERATIVE AND INFLAMMATORY DISEASES” (priority 2012, published 2013).

Target: T1, human JAK1 (Homo sapiens, UniProt P23458)
T1 construct: catalytic domain, amino acids 866-1154; catalog number PV4774; purchased Invitrogen PV4774
Assay: JAK1 inhibition assay (polyGT substrate / Ulight-JAK1 peptide)
Format: biochemical
Conditions: recombinant human JAK1 catalytic domain; polyGT or Ulight-JAK1 peptide assay
Experimental: 1.1 JAK1 Inhibition Assay
1.1.1 JAK1 Assay polyGT Substrate
After 45 min at 30° C., reactions are stopped by adding of 25 μL/well of 150 mM phosphoric acid. […] Plates are washed 6 times with 300 μL per well of a 75 mM phosphoric acid solution and the bottom of the plates is sealed. 40 μL/well of Microscint-20 is added, the top of the plates is sealed and readout is performed using the Topcount (Perkin Elmer). Kinase activity is calculated by subtracting counts per min (cpm) obtained in the presence of a positive control inhibitor (10 μM staurosporine) from cpm obtained in the presence of vehicle. The ability of a test compound to inhibit this activity is determined as:
Percentage inhibition=((cpm determined for sample with test compound present−cpm determined for sample with positive control inhibitor)divided by(cpm determined in the presence of vehicle−cpm determined for sample with positive control inhibitor))*100.
Dose dilution series are prepared for the compounds enabling the testing of dose-response effects in the JAK1 assay and the calculation of the IC50 for each compound.
1.1.2 JAK1 Ulight-JAK1 Peptide Assay
After 60 min at room temperature, reactions were stopped by adding 20 μL/well of detection mixture (1× detection buffer (Perkin Elmer, catalog number CR97-100C), 0.5 nM Europium-anti-phosphotyrosine (PT66) (Perkin Elmer, catalog number AD0068), 10 mM EDTA). […] Kinase activity was calculated by subtracting relative fluorescence units (RFU) obtained in the presence of a positive control inhibitor (10 μM staurosporine) from RFU obtained in the presence of vehicle. The ability of a test compound to inhibit this activity was determined as:
Percentage inhibition=((RFU determined for sample with test compound present−RFU determined for sample with positive control inhibitor)divided by(RFU determined in the presence of vehicle−RFU determined for sample with positive control inhibitor))*100.
Dose dilution series were prepared for the compounds enabling the testing of dose-response effects in the JAK1 assay and the calculation of the IC50 for the compound. Each compound is routinely tested at concentration of 20 μM followed by a 1/5 serial dilution, 10 points in a final concentration of 1% DMSO. […] The data are expressed as the average IC50 from the assays±standard error of the mean.

T1 sequence (P23458 866-1154): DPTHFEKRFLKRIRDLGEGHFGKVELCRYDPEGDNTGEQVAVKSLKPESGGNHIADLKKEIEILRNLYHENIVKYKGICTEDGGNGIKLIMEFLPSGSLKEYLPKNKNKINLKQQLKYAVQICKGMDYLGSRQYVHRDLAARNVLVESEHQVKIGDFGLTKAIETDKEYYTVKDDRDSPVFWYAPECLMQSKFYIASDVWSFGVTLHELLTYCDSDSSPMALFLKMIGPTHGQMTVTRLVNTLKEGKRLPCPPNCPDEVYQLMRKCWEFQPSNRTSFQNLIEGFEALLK

Row | SMILES | IC50
1 | CCOC(=O)c1ccc(N(CC)c2cc3c(cn2)ncn3C)cc1 [Compound 7, 4-[Ethyl-(1-methyl-1H-imidazo[4,5-c]pyridin-6-yl)-amino]-benzoic acid ethyl ester] | > 1000 nM
2 | CCc1cc(C(=O)NC2CN(C(=O)OC(C)(C)C)C2)ccc1N(C)c1cc2c(cn1)ncn2C [Compound 170, tert-butyl 3-(3-ethyl-4-(methyl(1-methyl-1H-imidazo[4,5-c]pyridin-6-yl)amino)benzamido)azetidine-1-carboxylate] | 501 to 1000 nM
3 | CCc1cc(C(=O)NC2CN(S(C)(=O)=O)C2)ccc1N(C)c1cc2c(cn1)ncn2C [Compound 175, 3-Ethyl-4-(methyl(1-methyl-1H-imidazo[4,5-c]pyridin-6-yl)amino)-N-(1-(methylsulfonyl)azetidin-3-yl)benzamide] | 501 to 1000 nM
4 | CCc1cc(C(=O)O)ccc1N(C)c1cc2c(cn1)ncn2C [Compound 185, 3-Ethyl-4-(methyl(1-methyl-1H-imidazo[4,5-c]pyridin-6-yl)amino)benzoic acid] | > 1000 nM
5 | CCc1cc(-c2n[nH]c(C3CC3)n2)ccc1N(C)c1cc2c(cn1)ncn2C [Compound 188, N-(4-(5-cyclopropyl-1H-1,2,4-triazol-3-yl)-2-ethylphenyl)-N,1-dimethyl-1H-imidazo[4,5-c]pyridin-6-amine] | 101 to 500 nM
6 | CC(NC(=O)OC(C)(C)C)c1ccc(N(C)c2cc3c(cn2)ncn3C)c(F)c1 (stereo not drawn) [Compound 268, tert-Butyl (1-(3-fluoro-4-(methyl(1-methyl-1H-imidazo[4,5-c]pyridin-6-yl)amino)phenyl)ethyl)carbamate] | > 1000 nM
7 | CC(=O)N1CC(c2ccc(N(C)c3cc4c(cn3)ncn4C)c(F)c2)C1 [Compound 278, 1-(3-{3-Fluoro-4-[methyl-(1-methyl-M-imidazo[4,5-c]pyridin-6-yl)-amino]-phenyl}-azetidin-1-yl)-ethanone] | 501 to 1000 nM
8 | CN(c1cc2c(cn1)ncn2C)c1ccc(C2CCN(C(=O)OC(C)(C)C)CC2)cc1F [Compound 279, 4-{3-Fluoro-4-[methyl-(1-methyl-M-imidazo[4,5-c]pyridin-6-yl)-amino]-phenyl}-piperidine-1-carboxylic acid tert-butyl ester] | > 1000 nM
9 | CN(c1cc2c(cn1)ncn2C)c1ccc(C2=CCN(C(=O)OC(C)(C)C)CC2)cc1OC(F)F [Compound 281, 4-{3-Difluoromethoxy-4-[methyl-(1-methyl-1H-imidazo[4,5-c]pyridin-6-yl)-amino]-phenyl}-3,6-dihydro-2H-pyridine-1-carboxylic acid tert-butyl ester] | 101 to 500 nM
10 | Cn1cnc2cnc(N(CC3CC3)c3ccc(C#N)cc3F)cc21 [Compound 282, 4-[Cyclopropylmethyl-(1-methyl-1H-imidazo[4,5-c]pyridin-6-yl)-amino]-3-fluoro-benzonitrile] | > 1000 nM
11 | CCc1ccccc1N(CCC#N)c1cc2c(cn1)ncn2C [Compound 285, 3-[(2-Ethyl-phenyl)-(1-methyl-1H-imidazo[4,5-c]pyridin-6-yl)-amino]-propionitrile] | 101 to 500 nM
12 | CN(c1cc2c(cn1)ncn2C)c1ccc(C2CCN(C(=O)OC(C)(C)C)CC2)cc1OC(F)F [Compound 286, 4-{3-Difluoromethoxy-4-[methyl-(1-methyl-1H-imidazo[4,5-c]pyridin-6-yl)-amino]-phenyl}-piperidine-1-carboxylic acid tert-butyl ester] | 101 to 500 nM
13 | CCc1ccccc1N(C)c1cc2c(cn1)ncn2C1CC1 [Compound 296, 1-cyclopropyl-N-(2-ethylphenyl)-N-methyl-1H-imidazo[4,5-c]pyridin-6-amine] | 501 to 1000 nM
14 | CCc1ccccc1N(C)c1cc2c(cn1)ncn2CC [Compound 297, 1-ethyl-N-(2-ethylphenyl)-N-methyl-1H-imidazo[4,5-c]pyridin-6-amine] | 501 to 1000 nM

Next, values leading:

Row | IC50 | SMILES
15 | 101 to 500 nM | CCc1cc(-c2c(C)nn(C)c2C)ccc1N(C)c1cc2c(cn1)ncn2C [Compound 138, N-(2-ethyl-4-(1,3,5-trimethyl-1H-pyrazol-4-yl)phenyl)-N,1-dimethyl-1H-imidazo[4,5-c]pyridin-6-amine]
16 | 0.01 to 100 nM | CCc1cc(-c2cn(C)cn2)ccc1N(C)c1cc2c(cn1)ncn2C [Compound 145, N-(2-ethyl-4-(1-methyl-1H-imidazol-4-yl)phenyl)-N,1-dimethyl-1H-imidazo[4,5-c]pyridin-6-amine]
17 | 0.01 to 100 nM | CCc1cc(CNC2CCS(=O)(=O)CC2)ccc1N(C)c1cc2c(cn1)ncn2C [Compound 146, {4-[(1,1-Dioxo-hexahydrothiopyran-4-ylamino)-methyl]-2-ethyl-phenyl}-methyl-(1-methyl-1H-imidazo[4,5-c]pyridin-6-yl)-amine]
18 | 0.01 to 100 nM | CCc1cc(C(=O)NC2CCCN(C)C2)ccc1N(C)c1cc2c(cn1)ncn2C (stereo not drawn) [Compound 152, 3-ethyl-4-(methyl(1-methyl-1H-imidazo[4,5-c]pyridin-6-yl)amino)-N-(1-methylpiperidin-3-yl)benzamide]
19 | 0.01 to 100 nM | CCc1cc(CNCC(C)(C)O)ccc1N(C)c1cc2c(cn1)ncn2C [Compound 169, 1-(3-ethyl-4-(methyl(1-methyl-1H-imidazo[4,5-c]pyridin-6-yl)amino)benzylamino)-2-methylpropan-2-ol]
20 | 101 to 500 nM | CCc1cc(C(=O)NC2COC2)ccc1N(C)c1cc2c(cn1)ncn2C [Compound 171, 3-ethyl-4-(methyl(1-methyl-1H-imidazo[4,5-c]pyridin-6-yl)amino)-N-(oxetan-3-yl)benzamide]
21 | 0.01 to 100 nM | CCc1cc(Cn2ccnc2C)ccc1N(C)c1cc2c(cn1)ncn2C [Compound 173, N-(2-Ethyl-4-((2-methyl-1H-imidazol-1-yl)methyl)phenyl)-N,1-dimethyl-1H-imidazo[4,5-c]pyridin-6-amine]
22 | 101 to 500 nM | CCc1cc(C(=O)NC2CNC2)ccc1N(C)c1cc2c(cn1)ncn2C [Compound 174, N-(azetidin-3-yl)-3-ethyl-4-(methyl(1-methyl-1H-imidazo[4,5-c]pyridin-6-yl)amino)benzamide]
23 | 101 to 500 nM | CCc1cc(C2CCN(C(=O)OC(C)(C)C)CC2)ccc1N(C)c1cc2c(cn1)ncn2C [Compound 180, tert-butyl 4-(3-ethyl-4-(methyl(1-methyl-1H-imidazo[4,5-c]pyridin-6-yl)amino)phenyl)piperidine-1-carboxylate]
24 | 0.01 to 100 nM | CCc1cc(-c2n[nH]c(C)n2)ccc1N(C)c1cc2c(cn1)ncn2C [Compound 183, N-(2-ethyl-4-(5-methyl-1H-1,2,4-triazol-3-yl)phenyl)-N,1-dimethyl-1H-imidazo[4,5-c]pyridin-6-amine]
25 | 101 to 500 nM | CCc1cc(-c2cnc(N3CCOCC3)nc2)ccc1N(C)c1cc2c(cn1)ncn2C [Compound 184, N-(2-Ethyl-4-(2-morpholinopyrimidin-5-yl)phenyl)-N,1-dimethyl-1H-imidazo[4,5-d]pyridin-6-amine]
26 | 0.01 to 100 nM | CCc1cc(C2CCNCC2)ccc1N(C)c1cc2c(cn1)ncn2C [Compound 187, N-(2-Ethyl-4-(piperidin-4-yl)phenyl)-N,1-dimethyl-1H-imidazo[4,5-c]pyridin-6-amine]
27 | 0.01 to 100 nM | CCNC(=O)NCc1ccc(N(C)c2cc3c(cn2)ncn3C)c(CC)c1 [Compound 192, 1-Ethyl-3-(3-ethyl-4-(methyl(1-methyl-1H-imidazo[4,5-c]pyridin-6-yl)amino)benzyl)urea]
